A short description of one data set: Solubility of substrates. Type of data set: physicochemical. On the procedure:
An optimal organic solvent as substrate stock buffer was needed to obtain good solubility and good stability. Different organic solvents and mixes were tested, such as ethanol, propylene glycol, methonal, DMSO, and mixes of these solvents at different ratios.

Data set [1] can be described thus: On-board stability of substrates in reaction buffer (FIG. 5). As to conditions: room temperature 24 hours in reaction buffer, compared with fresh condition. Type of data set: physicochemical. Here is the method:
The term “on-board stability” refers to the stability of […] in reaction buffer under the room temperature for 24 hours.
To develop the substrate reaction buffer into a robust reagent kit for the bioluminescence-based sequencing platform, both on-board stability and long term shelf life have been evaluated. […] We evaluated the room temperature stability for 24 hours (referred as on-board stability) for both CTZ and f-CTZ in the reaction buffer formulation listed above.

The nature of data set [2]: Long-term shelf life of substrates in reaction buffer (FIG. 6). Type of data set: physicochemical. As to conditions: 300 uM in reaction buffer, −20° C. Here is the method:
Long-term shelf life (long-term stability) was also evaluated for the substrate reaction buffer formulation. 300 uM substrate was diluted in the reaction buffer and stored at −20° C. One aliquot was thaw and tested against the fresh luciferase. Data at each time point was the relative signal intensity ratio compared to a fresh luciferase/substrate pair.

A further data set deals with T1, Nluc mutant (Oplophorus gracilirostris, UniProt Q9GV45, A31E/A60N/A81I/F95D/I117V/K70R/L54V/L99Q/M102K/N193R/P142E/Q151K/Q38R/Q45L/V71I/Y165I).
T1 construct: purchased Prolume Inc
The experiment in a line: Screening of CTZ analogs as substrate (FIG. 4). As to conditions: with Nluc mutant. Type of data set: biochemical.

Data set [3] concerns Gluc. The experiment in a line: Selective deactivation by DTT (FIG. 18B). Type of data set: biochemical, Gaussia princeps. On the procedure: (§1) Selective deactivation agents that are suitable for the invention include, but not limited to, Dithiothreitol (DTT), beta-mercaptoethylamine, tris-carboxyethylphosphine (TCEP). The suitable concentrations of the agent (e.g., DTT) for selectively deactivating the first luciferease may range from 0.001M to 2M, e.g., from 0.01M to 0.5M, from 0.05M to 1M, 0.07M to 0.5M, or about 0.1M.
In each cycle a mixture of NLRTs were incubated with the DNA template to be sequenced in the presence of a DNA polymerase. These NLRTs include 7-deaza-7-biotin-linker-3′-azidomethyl-dATP, 5-biotin-linker-3′-azidomethyl-dTTP, 5-digoxin-linker-3′-azidomethyl-dTTP, 5-digoxin-linker-3′-azidomethyl-dCTP, and 3′-azidomethyl-dGTP. Streptavidin-conjugated Gluc (recognizing biotin-labeled nucleotides A and T) was added to the sequencing flow cell followed by adding substrate CTZ. Bioluminesnce signals from the cleavage of CTZ by the Gluc was collected. […] Subsequently, Nluc-conjugated anti-Digoxin antibody was added to the flow cell to bind the Digoxin-labeled nucleotides (T and C). No signals for G were detected as expected.

In data set [4] the target is T2, Nluc (Oplophorus gracilirostris, UniProt Q9GV45, A31E/A60N/A81I/F95D/I117V/K70R/L54V/L99Q/M102K/N193R/P142E/Q151K/Q38R/Q45L/V71I/Y165I).
T2 construct: purchased Prolume Inc
Briefly: Selective deactivation by DTT (FIG. 18A). Type of data set: biochemical.
Description: as §1

The nature of data set [5]: Stability of luciferases in cells (Table 1). Type of data set: cell-based.
For data set [6] the following is noted: relative; each luciferase with the substrate listed in Table 1. From the text:
Preferably the luciferase is relatively small (e.g., less than 30 KDa) so that they can be readily engineered, e.g., be coupled to or fused to an affinity reagent disclosed herein. […] Other non-limiting examples of luciferases that can be used include Nanoluc (Promega) and NanoKaz (NanoLight Technology), which also comprise a sequence of SEQ ID NO: 2.

For data set [7], the system named is Gluc. The experiment in a line: Signal and thermostability after Traut's modification (FIG. 11C, 11D). Type of data set: biochemical, Gaussia princeps. On the procedure:
(§2) Other conjugation methods were also attempted to avoid the side reactions from SMCC. […] After purification of each reaction, the luciferase after Traut's treatment and the antibody after SMCC treatment were mixed together to react through the —SH group on the luciferase and maleimide on the SMCC group on antibody.
Beside signal evaluation, stability study had also been investigated. […] For Nluc, Traut's modification (1:1 ratio) helps to improve stability and signal for about 30% at 50° C.

For data set [8], the target named is T2, Nluc. The description is as above. Type of data set: biochemical.
Description: as §2
Beside signal evaluation, stability study had also been investigated. […]

Data set [9] deals with Gluc. The experiment in a line: Luciferase signal after incubation with SMCC linker or iodoacetamide (FIG. 10B). Type of data set: biochemical, Gaussia princeps. On the procedure: (§3) We investigated the detailed luciferase structures to find the reason for the signal drop. […] To confirm this hypothesis, lodoacetamide was used to incubate with both Gluc and Nluc. Lodoacetamide can bind covalently to the thiol group of cysteine so the protein cannot form disulfide bonds, as illustrated in FIG. 10A. […] This was the reason why there is signal loss after incubating the SMCC with Nluc/Gluc which leads to low signal intensity for the final antibody conjugates.

Data set [10] deals with T2, Nluc. The data set is described as above. Type of data set: biochemical. As to conditions: Nluc:iodoacetamide 1:10 ratio at RT for 30 min. On the procedure:
as §3

A short description of data set [11]: Cross-substrate reactivity of Nluc with the Gluc substrate (FIG. 3). Type of data set: biochemical.
Description: In some embodiments, the luciferase is incubated with the substrate for a sufficient amount of time to allow the development of the signal before detection. The step of signal development may last between 5 to 30 minutes, for example, about 10 minutes.
A short description of data set [12]: Side-by-side signal intensity comparison of commercial luciferases (FIG. 2). Type of data set: biochemical. As to conditions: integrated signal intensity from the first 10 sec. From the text: However, it was still multiple fold intensity higher than the rest of the counterparts. […] The integrated signal intensity from the first 10 sec was obtained from each luciferase/substrate pair to have the comparison.

Entries after “also recorded” stand apart in the source; their conditions may differ.

With `O=c1c(Cc2ccc(F)cc2)nc2c(Cc3ccccc3)[nH]c(-c3ccc(O)cc3)cn1-2` [f-CTZ, fluorinated coeleterazine], the water solubility result in the data set “Solubility of substrates” is recorded as “not water-soluble”. In addition, in [1], the on-board stability entry was “no significant difference; also recorded: not significantly different”. In addition, in data set [2] (Nluc/f-CTZ, 4 months), the “long-term stability (relative signal intensity versus fresh luciferase/substrate pair)” value is “no significant signal drop”. Besides, the “signal intensity among the different CTZ analog structures” value on Nluc mutant is “optimal substrate; also recorded: highest signal intensity”.
Regarding `O[C@H](CS)[C@H](O)CS` (racemic) [DTT, Dithiothreitol], in the data set on Gluc [3] (100 mM DTT), the “deactivation in sequencing flow cell” value was “deactivated Gluc”. Also, the “signal reduction after DTT treatment” value with Gluc [3] (Gluc) is given as “more than 95%”. For the same molecule, on Nluc [4], the “signal change after DTT treatment” value was “did not impair the activity; also recorded: no significant changes”.
Molecule “firefly: firefly luciferase, substrate D-Luciferin” came in with a Stability in cells in data set [5] of 0.00694 days. In data set [6], this molecule showed a Signal intensity of 1.
On to `N=C1CCCS1` [Traut's reagent, 2-iminothiolane], for which the “signal increase after Traut's modification” value with Gluc [7] (1:1 molar ratio gives the highest signal) turned out to be 60%. Moreover, the “thermostability after Traut's modification” value in the data set with Gluc [7] (50° C. or 70° C. for 1 hour) was “worse stability”; at Nluc [8] (Nluc modified or unmodified, 70° C. for 1 hour), “cannot survive 70 °C”. Also, the “signal increase after Traut's modification (in words)” value at Nluc [8] (Nluc, 1:1 molar ratio gives the highest signal) is given as “doubled”.
Turning to `O=C(ON1C(=O)CCC1=O)C1CCC(CN2C(=O)C=CC2=O)CC1` (stereo not shown) [SMCC], the “signal drop after incubating with SMCC linker” value in the data set with Gluc [9] (Gluc) is recorded as 15%-30%.
As for `Oc1ccc(Cc2nc3c(Cc4ccccc4)nc(-c4ccc(O)cc4)cn3c2O)cc1` [CTZ, coeleterazine], in “Solubility of substrates”, the water solubility entry was “not water-soluble”. In addition, the on-board stability entry in data set [1] was “no significant difference; also recorded: not significantly different”. Besides, the “long-term stability (relative signal intensity versus fresh luciferase/substrate pair)” value in data set [2] (Gluc/CTZ, 6 months) was “no significant signal drop”.
Consider `NC(=O)CI` [lodoacetamide, Iodoacetamide], for which the “signal lost after reacting with iodoacetamide” value is 2/3 with Gluc [9] (Gluc:iodoacetamide 1:10 ratio at RT for 30 min, fraction of signal) and “lost all signal” on Nluc [10].

B1: Nluc: NanoZac luciferase polypeptide (SEQ ID NO: 2), Prolume Inc. (protein)
chain: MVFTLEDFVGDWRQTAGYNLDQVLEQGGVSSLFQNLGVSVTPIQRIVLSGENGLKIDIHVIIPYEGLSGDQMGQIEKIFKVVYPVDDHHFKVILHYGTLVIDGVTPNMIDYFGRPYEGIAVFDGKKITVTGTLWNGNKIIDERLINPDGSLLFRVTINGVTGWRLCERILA
Turning to B1, in data set [11] (Nluc with CTZ), the “background signal when reacting with the Gluc substrate” value is given as “about 10%”. Moreover, the cross-substrate reactivity result in data set [11] (in words, FIG. 3) is on record as “no significant cross-substrate reactivity”. Also, the “signal compared to the Gluc mutant” value in data set [12] is on record as “half”.

B2: Nanoluc: Nanoluc luciferase (Promega), substrate Furimazine (protein)
chain: B1 chain
Consider B2, for which the Stability in cells in data set [5] is given as 7.7 days. In addition, the Signal intensity in data set [6] amounted to 80.

B3: NanoKaz: NanoKaz luciferase (NanoLight Technology), substrate Coelenterazine-F (protein)
chain: B1 chain
In [5], B3 registered a Stability in cells of 7.7 days. Further, the Signal intensity in data set [6] is 150.

B4: Gaussia: Gaussia luciferase (GLuc), substrate Coelenterazine (protein)
chain: MKPTENNEDFNIVAVASNFATTDLDADRGKLPGKKLPLEVLKELEANARKAGCTRGCLICLSHIKCTPKMKKFIPGRCHTYEGDKESAQGGIGEAIVDIPEIPGFKDLEPLEQFIAQVDLCVDCTTGCLKGLANVQCSDLLKKWLPQRCATFASKIQGQVDKIKGAGGDHHHHHH
B4: in [5], the Stability in cells is reported as 10.5 days. Moreover, in [6], the Signal intensity is recorded as 160.

For the origin of these results see US20230366023A1, “METHODS AND COMPOSITIONS FOR BIOLUMINESCENCE-BASED SEQUENCING” (BGI Shenzhen Co., Ltd., priority 2020, published 2023).
